pIC50: −log10 of the molar value. Entries after “also recorded” stand apart in the source; their conditions may differ. Like-named read-outs stand apart in the source and are kept apart here.
How the values were obtained:
AR4-2J cells [1] = experiment: Reversal by exogenous gastrin of antagonist-induced inhibition of AR4-2J proliferation; format: cell-based, rat; details: 5 x 10^-7 M gastrin added 2 h before the antagonist at its growth IC50
AR4-2J cells [2] = experiment: Inhibition of unsynchronised AR4-2J cell proliferation by gastrin/CCK receptor antagonists (MTT assay, direct cell counts); format: cell-based; details: Rattus norvegicus, AR-42J, 96 h, read-out: half maximal inhibitory concentration, AR4-2J proliferation
gastrin/CCK-B receptors = target: T1, gastrin/CCK-B receptors (Rattus norvegicus, UniProt P30553); experiment: Displacement of 125I-hG17-1 binding to AR4-2J cells; details: read-out: IC50 for displacing 125I-hG17-1 binding
T1 construct: AR4-2J cells were harvested, washed three times with Eagle's modified essential medium; host or cells: AR4-2J rat pancreatic acinar tumour cells (intact cells)
T1 sequence (P30553 1-452): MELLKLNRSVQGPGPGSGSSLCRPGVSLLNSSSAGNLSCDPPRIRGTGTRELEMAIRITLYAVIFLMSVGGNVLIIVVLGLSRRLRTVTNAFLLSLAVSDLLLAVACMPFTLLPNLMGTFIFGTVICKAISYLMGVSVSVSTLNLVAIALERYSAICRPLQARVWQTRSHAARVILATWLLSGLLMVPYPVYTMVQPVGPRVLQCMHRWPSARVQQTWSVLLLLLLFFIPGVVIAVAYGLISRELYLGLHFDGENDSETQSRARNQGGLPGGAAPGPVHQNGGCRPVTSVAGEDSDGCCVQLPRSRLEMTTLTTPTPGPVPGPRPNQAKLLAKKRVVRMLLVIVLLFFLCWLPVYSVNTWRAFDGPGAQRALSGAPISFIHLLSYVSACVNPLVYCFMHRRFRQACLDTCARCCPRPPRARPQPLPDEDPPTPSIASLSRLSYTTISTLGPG

HT-29 cells = experiment: HT-29 cell proliferation (MTT assay); format: cell-based, human
AR4-2J cells [3] = experiment: Effect of exogenous gastrin on AR4-2J proliferation in serum-free medium (MTT assay); format: cell-based, rat; details: up to 5 x 10^-6 M

Compound | effect of prior addition of gastrin on the inhibition of cell growth (AR4-2J cells [1]) | other results
CCCCCN(CCCCC)C(=O)C(CCC(=O)O)NC(=O)c1ccc(Cl)c(Cl)c1 (racemic) [lorglumide, D, L-4-(3,4-dichlorobenzoylamino)-5-(di-n-pentylamino)-5-oxo-pentanoic acid] | partially reversed | –
CCCCCN(CCCOC)C(=O)C(CCC(=O)O)NC(=O)c1ccc(Cl)c(Cl)c1 (racemic) [loxiglumide, D,L-4-(3,4-di-chlorobenzoylamino) -5-(N-3-methoxypropylpentylamino)-5-oxo-pentanoic acid] | partially reversed | –
CCCN(CCC)C(=O)C(CCC(=O)O)NC(=O)c1ccccc1 (racemic) [proglumide, D,L-4-benzamido-N,N-di-n-propylgluta-ramic acid] | partially reversed | pIC50 (AR4-2J cells [2]; 4 day incubation, text statement of range): 2.52; pIC50 (gastrin/CCK-B receptors): 2.89
Cc1cccc(NC(=O)N[C@@H]2N=C(c3ccccc3)c3ccccc3N(C)C2=O)c1 [L-365,260, 3R(+)-N-(2,3-dihydro-1-methyl-2-oxo-5-phenyl-1H-1 ,4-benzodiazepin-3-yl) -N'-(3-methylphenyl)urea] | not reversed; also recorded: not significantly effected | –
O=C(N[C@@H](Cc1c[nH]c2ccccc12)C(=O)O)c1ccc(Cl)cc1 [benzotript, N-p-chlorobenzoyl-L- tryptophan] | partially reversed | pIC50 (gastrin/CCK-B receptors): 3.59
CN1C(=O)[C@@H](NC(=O)c2cc3ccccc3[nH]2)N=C(c2ccccc2)c2ccccc21 [devazepide, 3S (- )-N-(2,3-dihydro-l-methyl-2-oxo-5-phenyl-1 H-1,4-benzodiazepine-3-yl) -1H-indole-2-carboxamide] | not reversed; also recorded: not significantly effected | pIC50 (AR4-2J cells [2]): 4.77
gastrin | – | effect on HT-29 proliferation (HT-29 cells): neither exogenous gastrin nor an anti-gastrin Ig preparation effected proliferation; effect on proliferation of asynchronous AR4-2J cells (AR4-2J cells [3]): no significant effect
